In ChEMBL document CHEMBL4346695, “Thiophenol-formaldehyde triazole causes apoptosis induction in ovary cancer cells and prevents tumor growth formation in mice model” (2019):
Calls of active or inactive are those of the source.

Assays:
Caov-3 cell line = test: Growth inhibition of human Caov3 cells incubated for 48 hrs by MTT assay; assay type: functional, cell-based
Homo sapiens = organism: Homo sapiens; test: Growth inhibition of human ES2 cells incubated for 48 hrs by MTT assay; assay type: functional
Caov-4 = test: Growth inhibition of human Caov4 cells incubated for 48 hrs by MTT assay; assay type: functional, cell-based

Measured: growth inhibition (GI)

FC(F)(F)c1ccccc1-n1cc(COCc2ccccc2S)nn1
active: all assays above
